Test results from the NIST ThermoML archive (doi:10.1016/j.jct.2015.05.024).
± gives the expanded uncertainty stated by the source.

Assay: xn = mol fraction of the nth substance listed
Conditions: 100 kPa, Liquid, Vibrating tube method

Work on `OCCOCCOCCO` [triethylene glycol] + O yielded a mass density (323.15 K, x1 = 0.2988) of 1088.45 ± 0.14 kg/m3, a mass density (323.15 K, x1 = 0.3492) of 1091.15 ± 0.15 kg/m3 and a mass density (323.15 K, x1 = 0.3925) of 1092.88 ± 0.15 kg/m3. It also gave a mass density (323.15 K, x1 = 0.4502) of 1094.61 ± 0.16 kg/m3, a mass density (323.15 K, x1 = 0.4877) of 1095.48 ± 0.17 kg/m3 and a mass density (323.15 K, x1 = 0.5004) of 1095.75 ± 0.17 kg/m3. For the same molecule, the mass density (323.15 K, x1 = 0.5739) was 1097.01 ± 0.19 kg/m3, the mass density (323.15 K, x1 = 0.58) was 1097.09 ± 0.19 kg/m3 and the mass density (323.15 K, x1 = 0.6465) was 1097.92 ± 0.2 kg/m3. It also gave a mass density (323.15 K, x1 = 0.651) of 1097.96 ± 0.2 kg/m3, a mass density (323.15 K, x1 = 0.7008) of 1098.44 ± 0.21 kg/m3 and a mass density (323.15 K, x1 = 0.7471) of 1098.82 ± 0.23 kg/m3. The mass density (323.15 K, x1 = 0.7677) was 1098.97 ± 0.23 kg/m3, the mass density (323.15 K, x1 = 0.82) was 1099.31 ± 0.24 kg/m3 and the mass density (323.15 K, x1 = 0.8623) was 1099.56 ± 0.26 kg/m3. The mass density (323.15 K, x1 = 0.8792) was 1099.64 ± 0.27 kg/m3, the mass density (323.15 K, x1 = 0.8975) was 1099.74 ± 0.27 kg/m3 and the mass density (323.15 K, x1 = 0.9203) was 1099.85 ± 0.28 kg/m3. It also gave a mass density (323.15 K, x1 = 0.9514) of 1100 ± 0.29 kg/m3, a mass density (323.15 K, x1 = 0.9692) of 1100.08 ± 0.3 kg/m3 and a mass density (323.15 K, x1 = 1) of 1100.22 ± 0.31 kg/m3. For the same molecule, the mass density (328.15 K, x1 = 0.0107) was 996.693 ± 0.22 kg/m3, the mass density (328.15 K, x1 = 0.02047) was 1005.64 ± 0.2 kg/m3 and the mass density (328.15 K, x1 = 0.03972) was 1020.67 ± 0.19 kg/m3. The mass density (328.15 K, x1 = 0.04979) was 1027.35 ± 0.16 kg/m3, the mass density (328.15 K, x1 = 0.06996) was 1038.74 ± 0.15 kg/m3 and the mass density (328.15 K, x1 = 0.09424) was 1049.58 ± 0.14 kg/m3. The mass density (328.15 K, x1 = 0.1481) was 1065.82 ± 0.13 kg/m3, the mass density (328.15 K, x1 = 0.2006) was 1075.2 ± 0.13 kg/m3 and the mass density (328.15 K, x1 = 0.2502) was 1080.82 ± 0.14 kg/m3. The mass density (328.15 K, x1 = 0.2988) was 1084.52 ± 0.14 kg/m3, the mass density (328.15 K, x1 = 0.3492) was 1087.21 ± 0.15 kg/m3 and the mass density (328.15 K, x1 = 0.3925) was 1088.93 ± 0.15 kg/m3. It also gave a mass density (328.15 K, x1 = 0.4502) of 1090.66 ± 0.16 kg/m3, a mass density (328.15 K, x1 = 0.4877) of 1091.55 ± 0.17 kg/m3 and a mass density (328.15 K, x1 = 0.5004) of 1091.81 ± 0.17 kg/m3. The mass density (328.15 K, x1 = 0.5739) was 1093.08 ± 0.18 kg/m3, the mass density (328.15 K, x1 = 0.58) was 1093.16 ± 0.19 kg/m3 and the mass density (328.15 K, x1 = 0.6465) was 1093.99 ± 0.2 kg/m3. It also gave a mass density (328.15 K, x1 = 0.651) of 1094.04 ± 0.2 kg/m3, a mass density (328.15 K, x1 = 0.7008) of 1094.53 ± 0.21 kg/m3 and a mass density (328.15 K, x1 = 0.7471) of 1094.91 ± 0.22 kg/m3. The mass density (328.15 K, x1 = 0.7677) was 1095.06 ± 0.23 kg/m3, the mass density (328.15 K, x1 = 0.82) was 1095.4 ± 0.24 kg/m3 and the mass density (328.15 K, x1 = 0.8623) was 1095.64 ± 0.26 kg/m3. For the same molecule, the mass density (328.15 K, x1 = 0.8792) was 1095.73 ± 0.26 kg/m3, the mass density (328.15 K, x1 = 0.8975) was 1095.83 ± 0.27 kg/m3 and the mass density (328.15 K, x1 = 0.9203) was 1095.94 ± 0.28 kg/m3. The mass density (328.15 K, x1 = 0.9514) was 1096.09 ± 0.29 kg/m3, the mass density (328.15 K, x1 = 0.9692) was 1096.17 ± 0.29 kg/m3 and the mass density (328.15 K, x1 = 1) was 1096.3 ± 0.31 kg/m3. For the same molecule, the mass density (333.15 K, x1 = 0.0107) was 994.065 ± 0.22 kg/m3, the mass density (333.15 K, x1 = 0.02047) was 1002.89 ± 0.19 kg/m3 and the mass density (333.15 K, x1 = 0.03972) was 1017.67 ± 0.18 kg/m3. The mass density (333.15 K, x1 = 0.04979) was 1024.24 ± 0.16 kg/m3, the mass density (333.15 K, x1 = 0.06996) was 1035.42 ± 0.15 kg/m3 and the mass density (333.15 K, x1 = 0.09424) was 1046.06 ± 0.14 kg/m3. It also gave a mass density (333.15 K, x1 = 0.1481) of 1062.02 ± 0.13 kg/m3, a mass density (333.15 K, x1 = 0.2006) of 1071.28 ± 0.13 kg/m3 and a mass density (333.15 K, x1 = 0.2502) of 1076.84 ± 0.14 kg/m3. It also gave a mass density (333.15 K, x1 = 0.2988) of 1080.53 ± 0.14 kg/m3, a mass density (333.15 K, x1 = 0.3492) of 1083.23 ± 0.15 kg/m3 and a mass density (333.15 K, x1 = 0.3925) of 1084.95 ± 0.15 kg/m3. For the same molecule, the mass density (333.15 K, x1 = 0.4502) was 1086.7 ± 0.16 kg/m3, the mass density (333.15 K, x1 = 0.4877) was 1087.58 ± 0.17 kg/m3 and the mass density (333.15 K, x1 = 0.5004) was 1087.85 ± 0.17 kg/m3. The mass density (333.15 K, x1 = 0.5739) was 1089.13 ± 0.18 kg/m3, the mass density (333.15 K, x1 = 0.58) was 1089.21 ± 0.18 kg/m3 and the mass density (333.15 K, x1 = 0.6465) was 1090.05 ± 0.2 kg/m3. It also gave a mass density (333.15 K, x1 = 0.651) of 1090.1 ± 0.2 kg/m3, a mass density (333.15 K, x1 = 0.7008) of 1090.59 ± 0.21 kg/m3 and a mass density (333.15 K, x1 = 0.7471) of 1090.97 ± 0.22 kg/m3. For the same molecule, the mass density (333.15 K, x1 = 0.7677) was 1091.13 ± 0.23 kg/m3, the mass density (333.15 K, x1 = 0.82) was 1091.47 ± 0.24 kg/m3 and the mass density (333.15 K, x1 = 0.8623) was 1091.71 ± 0.25 kg/m3. It also gave a mass density (333.15 K, x1 = 0.8792) of 1091.81 ± 0.26 kg/m3, a mass density (333.15 K, x1 = 0.8975) of 1091.9 ± 0.27 kg/m3 and a mass density (333.15 K, x1 = 0.9203) of 1092.01 ± 0.27 kg/m3. For the same molecule, the mass density (333.15 K, x1 = 0.9514) was 1092.16 ± 0.28 kg/m3, the mass density (333.15 K, x1 = 0.9692) was 1092.24 ± 0.29 kg/m3 and the mass density (333.15 K, x1 = 1) was 1092.38 ± 0.3 kg/m3.
